Reference: US20240067657A1, “AMIDO-SUBSTITUTED PYRIDYL COMPOUNDS AND METHODS OF USE THEREOF FOR THE TREATMENT OF HERPESVIRUSES” (Merck Sharp & Dohme LLC, priority 2020, published 2024)
pEC50, pIC50: −log10 of the molar value. Where two headings read alike, the source gives them in different places.

Legend:
[1] = target: T1, varicella zoster virus DNA polymerase (Varicella-zoster virus, UniProt P09252); assay: VZV polymerase assay (AlphaLISA, IC50); type: biochemical; conditions: polymerase assay of Example 190
T1 construct: made in house; host or cells: SF21 insect cells (baculovirus vector)
T1 sequence (P09252 whole entry): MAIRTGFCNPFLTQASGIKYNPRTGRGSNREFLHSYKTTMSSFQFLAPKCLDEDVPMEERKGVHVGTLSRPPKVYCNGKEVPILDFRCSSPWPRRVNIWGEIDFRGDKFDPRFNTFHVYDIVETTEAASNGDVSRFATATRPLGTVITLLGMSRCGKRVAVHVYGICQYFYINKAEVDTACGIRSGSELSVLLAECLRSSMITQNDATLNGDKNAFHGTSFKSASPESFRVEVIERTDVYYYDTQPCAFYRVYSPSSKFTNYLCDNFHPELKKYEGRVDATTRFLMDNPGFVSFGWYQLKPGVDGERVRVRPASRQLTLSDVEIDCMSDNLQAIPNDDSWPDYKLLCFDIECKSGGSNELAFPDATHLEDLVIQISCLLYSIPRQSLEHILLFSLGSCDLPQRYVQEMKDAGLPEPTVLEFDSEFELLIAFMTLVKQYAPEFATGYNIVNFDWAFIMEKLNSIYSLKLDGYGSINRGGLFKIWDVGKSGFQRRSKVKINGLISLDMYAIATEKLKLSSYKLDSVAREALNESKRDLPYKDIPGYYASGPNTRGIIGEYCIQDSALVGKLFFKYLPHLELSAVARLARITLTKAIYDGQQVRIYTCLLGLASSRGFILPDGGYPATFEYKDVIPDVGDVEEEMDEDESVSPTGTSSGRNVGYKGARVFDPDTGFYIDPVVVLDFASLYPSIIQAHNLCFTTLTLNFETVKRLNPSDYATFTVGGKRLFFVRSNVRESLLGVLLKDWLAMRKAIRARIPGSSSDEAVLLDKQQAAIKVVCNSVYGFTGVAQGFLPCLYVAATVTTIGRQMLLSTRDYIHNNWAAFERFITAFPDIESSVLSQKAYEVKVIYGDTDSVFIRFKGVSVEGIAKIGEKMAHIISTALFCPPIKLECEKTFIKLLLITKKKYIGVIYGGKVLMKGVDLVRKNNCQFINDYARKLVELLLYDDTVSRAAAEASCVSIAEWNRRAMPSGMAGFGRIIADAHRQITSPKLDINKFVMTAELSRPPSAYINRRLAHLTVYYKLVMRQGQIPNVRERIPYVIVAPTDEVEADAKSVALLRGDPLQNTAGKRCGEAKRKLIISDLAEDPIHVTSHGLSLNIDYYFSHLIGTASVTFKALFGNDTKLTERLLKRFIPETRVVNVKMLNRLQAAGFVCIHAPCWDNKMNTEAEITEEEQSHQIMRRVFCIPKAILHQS
How it was run: (§1)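 Baculovirus-expressed polymerase (HCMV 0.2 nM, VZV 0.4 nM final) preincubated 30 min at room temperature with compound in pH 7.5 HEPES buffer; reaction started with 1.6 nM DIG-primer/template and nM dNTPs including biotin-dUTP, run 60 min at 37° C. Incorporation detected by AlphaLISA; IC50 from 4-parameter fit.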

[2] = tested on: HSV-1 Strain F in Vero or MRC5 cells; assay: Viral qPCR assay HSV-1 (V0/V1, V2/V3), EC50; type: cell-based
How it was run: (§2)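 Infected cells added to compounds (10-point 3-fold series), ~72 h at 37 °C, then lysed; viral genomes by TaqMan qPCR against plasmid standard, normalized to PPIA in V0/V1 only, EC50 from 4-parameter fit. HCMV AD169, 0.05-0.1 pfu/cell, ± 50% FBS; VZV 0.04-0.1 pfu/cell; HSV-1 F 0.0005-0.004 pfu/cell.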

[3] = tested on: HCMV Strain AD169 in MRC-5 cells; assay: Viral qPCR assay HCMV (V0/V1, V2/V3), EC50; type: cell-based
How it was run: as §2

[4] = tested on: VZV in MeWo or MRC5 cells; assay: Viral qPCR assay VZV (V0/V1, V2/V3), EC50; type: cell-based
How it was run: as §2

[5] = target: T2, Human cytomegalovirus DNA polymerase (Human cytomegalovirus, UniProt P08546); assay: HCMV polymerase assay (AlphaLISA, IC50); type: biochemical; conditions: polymerase assay of Example 190
T2 construct: made in house; host or cells: SF21 insect cells (baculovirus vector)
T2 sequence (P08546 whole entry): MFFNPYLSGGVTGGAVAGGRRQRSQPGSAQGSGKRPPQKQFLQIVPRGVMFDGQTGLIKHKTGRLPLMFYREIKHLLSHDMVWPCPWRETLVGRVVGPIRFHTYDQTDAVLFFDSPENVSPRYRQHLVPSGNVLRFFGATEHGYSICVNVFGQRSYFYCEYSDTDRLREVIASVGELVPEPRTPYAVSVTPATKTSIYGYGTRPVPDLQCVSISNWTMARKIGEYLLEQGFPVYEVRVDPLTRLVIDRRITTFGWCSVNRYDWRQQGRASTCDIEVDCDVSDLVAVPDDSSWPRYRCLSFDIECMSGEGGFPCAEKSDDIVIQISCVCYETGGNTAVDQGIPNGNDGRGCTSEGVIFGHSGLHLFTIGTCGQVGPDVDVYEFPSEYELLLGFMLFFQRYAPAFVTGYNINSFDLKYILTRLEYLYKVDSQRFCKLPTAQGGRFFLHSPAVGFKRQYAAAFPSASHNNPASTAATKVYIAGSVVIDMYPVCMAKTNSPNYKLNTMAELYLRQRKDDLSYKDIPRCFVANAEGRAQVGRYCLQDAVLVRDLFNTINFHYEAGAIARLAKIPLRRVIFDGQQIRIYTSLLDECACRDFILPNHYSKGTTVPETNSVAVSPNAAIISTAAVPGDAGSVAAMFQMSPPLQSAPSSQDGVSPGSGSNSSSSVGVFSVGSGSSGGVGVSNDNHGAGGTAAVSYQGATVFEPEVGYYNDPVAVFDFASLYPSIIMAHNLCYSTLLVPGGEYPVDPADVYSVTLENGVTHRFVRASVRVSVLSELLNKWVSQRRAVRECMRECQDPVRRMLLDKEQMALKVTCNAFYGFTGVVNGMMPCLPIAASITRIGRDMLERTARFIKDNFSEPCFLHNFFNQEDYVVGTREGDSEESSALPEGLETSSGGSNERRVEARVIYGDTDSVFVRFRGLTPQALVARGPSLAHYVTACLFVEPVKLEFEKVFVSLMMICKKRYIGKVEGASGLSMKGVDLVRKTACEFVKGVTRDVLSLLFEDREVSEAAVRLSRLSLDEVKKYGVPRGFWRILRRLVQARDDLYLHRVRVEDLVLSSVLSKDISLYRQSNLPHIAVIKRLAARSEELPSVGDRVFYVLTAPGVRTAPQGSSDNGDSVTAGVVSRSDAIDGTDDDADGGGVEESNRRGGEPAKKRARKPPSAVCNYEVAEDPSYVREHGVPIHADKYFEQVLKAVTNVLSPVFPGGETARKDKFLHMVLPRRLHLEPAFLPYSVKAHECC
How it was run: as §1

[6] = Human alphaherpesvirus 1, MRC5, MRC5 cells, 10%, read-out: HSV1 Cell (EC50) MRC5 10%
[7] = Human alphaherpesvirus 1, Vero, VERO cells, 10%, read-out: HSV1 Cell (EC50) VERO 10%
[8] = Human betaherpesvirus 5, AD169, MRC5, viral qPCR assay of Example 191, read-out: HCMV Cell (EC50)
[9] = Human alphaherpesvirus 3, MRC5, MRC5 cells, 10%, read-out: VZV Cell (EC50) MRC5 10%
[10] = Human alphaherpesvirus 3, MeWo, MEWO cells, 10%, read-out: VZV Cell (EC50) MEWO 10%

Row | Compound | pIC50 [1] | pEC50 [2, 6] | pEC50 [2, 7] | pEC50 [3, 8] | pEC50 [4, 9] | pEC50 [4, 10] | pIC50 [5] | pEC50 ([2]; VERO cells, 10%, read-out: HSV1 Cell (EC50) VERO 10%) | pEC50 ([3]; viral qPCR assay of Example 191, read-out: HCMV Cell (EC50)) | pEC50 ([4]; MRC5 cells, 10%, read-out: VZV Cell (EC50) MRC5 10%) | pEC50 ([2]; Human alphaherpesvirus 1, Vero, read-out: HSV1 Cell (EC50) VERO 10%) | pEC50 ([3]; Human betaherpesvirus 5, AD169, MRC5, read-out: HCMV Cell (EC50)) | pEC50 ([4]; Human alphaherpesvirus 3, MeWo, read-out: VZV Cell (EC50) MEWO 10%)
1 | O=C(NCc1ccc(Cl)cc1)c1cc(O[C@H]2CCN3C(=O)OC[C@@H]3C2)c(OCC(F)(F)F)cn1 [Compound 126] | 7.78 | 5.71 | 6.81 | 6.24 | 5.84 | 6.31 | 7.59 | – | – | – | – | – | –
2 | Cn1cc(-c2cnc(C(=O)NCc3ccc(Cl)cc3)cc2O[C@H]2CCN3C(=O)NC[C@H]3C2)cn1 (racemic) [Compound 171] | 7.06 | – | 5.71 | 5.96 | – | 6.05 | 6.66 | – | – | – | – | – | –
3 | O=C(NCc1ccc(Cl)cc1)c1cc(O[C@H]2CCN3C(=O)OC[C@@H]3C2)c(-c2cnn(CC(F)(F)F)c2)cn1 [Compound 17] | 7.68 | – | 6.37 | 6.42 | – | 6.43 | 7.64 | – | – | – | – | – | –
4 | CC(=O)N1CCC(Oc2cc(C(=O)NCc3ccc(Cl)cc3)ncc2-c2cn(C)c(C)n2)CC1 [Compound 48] | 7.53 | 6.72 | – | 6.43 | 6.53 | – | 7.50 | – | – | – | – | – | –
5 | CC(=O)N1CCC(Oc2cc(C(=O)NCc3ccc(Cl)cc3)ncc2-c2cnco2)CC1 [Compound 65] | 7.93 | 6.54 | – | 6.11 | 6.14 | – | 7.45 | – | – | – | – | – | –
6 | O=C(NCc1ccc(Cl)cc1)c1cc(O[C@H]2CCN3C(=O)OC[C@@H]3C2)c(-c2cnn(C3COC3)c2)cn1 [Compound 36] | 8.61 | 6.84 | 6.36 | 6.77 | 6.76 | – | 8.35 | – | – | – | – | – | –
7 | Cc1ncc(-c2cnc(C(=O)NCc3ccc(Cl)cc3)cc2O[C@H]2CCN3C(=O)OC[C@@H]3C2)s1 [Compound 42] | 8.42 | 7.29 | 7.39 | 7.23 | 7.10 | 7.31 | 8.28 | – | – | – | – | – | –
8 | O=C(NCc1ccc([N+](=O)[O-])cc1)c1cc(O[C@H]2CCN3C(=O)OC[C@@H]3C2)c(-c2cnn(C(F)F)c2)cn1 [Compound 82] | 8.04 | 6.90 | – | 7.04 | 6.61 | – | 7.80 | – | – | – | – | – | –
9 | O=C(NCc1ccc(Cl)cc1)c1cc(O[C@H]2CCN3C(=O)OC[C@@H]3C2)c(-c2cnc(C3CC3)o2)cn1 [Compound 33] | 8.57 | 6.90 | – | 6.92 | 6.71 | – | 8.20 | – | – | – | – | – | –
10 | O=C(NCc1ccc(Cl)cc1)c1cc(O[C@H]2CCN3C(=O)OC[C@@H]3C2)c(C2CC2CO)cn1 (single isomer, unassigned) [Compound 156-2] | 8.30 | – | – | – | – | – | 8.10 | 6.13 | 6.22 | 5.93 | – | – | –
11 | COC/C=C/c1cnc(C(=O)NCc2ccc(Cl)cc2)cc1O[C@H]1CCN2C(=O)OC[C@@H]2C1 [Compound 155b] | 8.02 | 6.58 | 6.68 | 6.42 | 6.40 | – | 8.07 | – | – | – | – | – | –
12 | O=C(NCc1ccc(Cl)cc1)c1cc(O[C@H]2CCN3C(=O)OC[C@@H]3C2)c(CN2CCC3OCCC32)cn1 (mixture of isomers) [Compound 142] | 7.89 | – | 6.34 | 6.61 | 6.31 | – | 7.75 | – | – | – | – | – | –
13 | CC(=O)N1CCC(Oc2cc(C(=O)NCc3ccc(Cl)cc3)ncc2-c2cnn(C(F)F)c2)CC1C (centres unmarked) [Compound 167] | 8.07 | 6.37 | – | 6.70 | 6.17 | – | 7.54 | – | – | – | – | – | –
14 | O=C(NCc1ccc(Cl)cc1)c1cc(O[C@H]2CCN3C(=O)OC[C@@H]3C2)c(-c2cnn(C3CC3)c2)cn1 [Compound 19] | 8.04 | – | 6.50 | 6.67 | – | 6.98 | 7.76 | – | – | – | – | – | –
15 | CN(C)CCn1cc(-c2cnc(C(=O)NCc3ccc(Cl)cc3)cc2O[C@H]2CCN3C(=O)OC[C@@H]3C2)cn1 (racemic) [Compound 10] | 7.38 | – | 5.86 | 6.75 | – | 6.43 | 7.10 | – | – | – | – | – | –
16 | CC(=O)N1CCC(Oc2cc(C(=O)NCc3ccc(Cl)cc3)ncc2-c2cc(C)ns2)CC1 [Compound 44] | 8.70 | 6.81 | – | 6.74 | 6.92 | – | 7.58 | – | – | – | – | – | –
17 | Cc1cnc(C(=O)NCc2ccc(Cl)cc2)cc1O[C@H]1CCN2C(=O)OC[C@@H]2C1 [Compound 68] | 7.41 | 6.16 | 6.57 | 6.22 | 5.96 | 6.90 | 7.29 | – | – | – | – | – | –
18 | Cn1ccc(-c2cnc(C(=O)NCc3ccc(Cl)cc3)cc2O[C@H]2CCN3C(=O)OC[C@@H]3C2)n1 [Compound 30] | 7.79 | 7.11 | 6.88 | 6.94 | 6.92 | 7.09 | 8.01 | – | – | – | – | – | –
19 | O=C(NCc1ccc(Cl)cc1)c1cc(O[C@H]2CCN3C(=O)OC[C@@H]3C2)c(-c2cnc(C(F)F)o2)cn1 [Compound 148] | 8.35 | 6.89 | – | 6.79 | 6.64 | – | 8.60 | – | – | – | – | – | –
20 | CC(=O)N1CCC(Oc2cc(C(=O)NCc3ccc(Cl)cc3)ncc2-c2nc(C)ns2)CC1 [Compound 49] | 7.75 | 6.29 | – | 6.81 | 6.10 | – | 7.44 | – | – | – | – | – | –
21 | O=C(NCc1ccc(Cl)cc1)c1cc(O[C@H]2CCN3C(=O)OC[C@@H]3C2)c(-c2cnco2)cn1 [Compound 24] | ≥ 9.35 | 7.25 | – | 7.01 | 6.92 | – | 8.80 | – | – | – | – | – | –
22 | CC(C)Cn1cc(-c2cnc(C(=O)NCc3ccc(Cl)cc3)cc2O[C@H]2CCN3C(=O)OC[C@@H]3C2)cn1 (racemic) [Compound 11] | 7.29 | – | 6.09 | 6.16 | – | 6.15 | 7.15 | – | – | – | – | – | –
23 | COCCn1cc(-c2cnc(C(=O)NCc3ccc(Cl)cc3)cc2O[C@H]2CCN3C(=O)OC[C@@H]3C2)cn1 [Compound 31] | 8.18 | 6.65 | 6.51 | 6.93 | 6.59 | 6.95 | 8.07 | – | – | – | – | – | –
24 | O=C(NCc1ccc(F)c(F)c1F)c1cc(O[C@H]2CCN3C(=O)OC[C@@H]3C2)c(-c2cnn(C(F)F)c2)cn1 [Compound 87] | 7.41 | – | 6.42 | 6.20 | – | 6.36 | 7.06 | – | – | – | – | – | –
25 | COc1cnc(C(=O)NCc2ccc(Cl)cc2)cc1O[C@H]1CCN2C(=O)OC[C@@H]2C1 [Compound 129] | 7.74 | – | – | – | – | – | 7.27 | – | – | – | 6.47 | 6.26 | 6.56
